# According to PubChem BioAssay (NCI):
#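 1) Cells in 96-well plates. 2) Compound, 48 h, 5 concentrations. 3) Linear interpolation between surrounding doses. 4) Unreached endpoint = highest concentration. Here, GI50 denotes the concentration required for 50% inhibition of growth. TGI is the concentration that stops growth completely.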
# Assays:
# Test in all cases: inhibition of tumour cell growth, NCI panel, 48 h
# K-562 leukemia = system: K-562 leukemia
# OVCAR-5 ovarian = system: OVCAR-5 ovarian
# NCI/ADR-RES ovarian = system: NCI/ADR-RES ovarian
# UO-31 renal = system: UO-31 renal
# UACC-62 melanoma = system: UACC-62 melanoma
# HCT-15 colon = system: HCT-15 colon
# DU-145 prostate = system: DU-145 prostate
# NCI-H23 lung = system: NCI-H23 lung
# T-47D breast = system: T-47D breast
# NCI-H460 lung = system: NCI-H460 lung
# SK-MEL-28 melanoma = system: SK-MEL-28 melanoma
# SK-OV-3 ovarian = system: SK-OV-3 ovarian
# MDA-MB-435 = system: MDA-MB-435
# EKVX NSCLC = system: EKVX NSCLC
# U251 CNS = system: U251 CNS
# MCF7 breast = system: MCF7 breast
# RXF 393 renal = system: RXF 393 renal
# OVCAR-3 ovarian = system: OVCAR-3 ovarian
# HS 578T breast = system: HS 578T breast
# ACHN renal = system: ACHN renal
# RPMI-8226 leukemia = system: RPMI-8226 leukemia
# SNB-19 CNS = system: SNB-19 CNS
# TK-10 renal = system: TK-10 renal
# A498 renal = system: A498 renal
# SN12C renal = system: SN12C renal
# SK-MEL-2 melanoma = system: SK-MEL-2 melanoma
# OVCAR-8 ovarian = system: OVCAR-8 ovarian
# BT-549 breast = system: BT-549 breast
# SF-268 CNS = system: SF-268 CNS
# HOP-92 NSCLC = system: HOP-92 NSCLC
# MDA-N = system: MDA-N
# HCT-116 colon = system: HCT-116 colon
# LOX IMVI melanoma = system: LOX IMVI melanoma
# HT29 colon = system: HT29 colon
# MDA-MB-231 breast = system: MDA-MB-231 breast
# PC-3 prostate = system: PC-3 prostate
# OVCAR-4 ovarian = system: OVCAR-4 ovarian
# HOP-62 NSCLC = system: HOP-62 NSCLC
# HL-60(TB) leukemia = system: HL-60(TB) leukemia
# 786-0 renal = system: 786-0 renal
# NCI-H226 lung = system: NCI-H226 lung
# SF-539 CNS = system: SF-539 CNS
# UACC-257 melanoma = system: UACC-257 melanoma
# SNB-75 CNS = system: SNB-75 CNS
# CAKI-1 renal = system: CAKI-1 renal
# COLO 205 colon = system: COLO 205 colon
# SF-295 CNS = system: SF-295 CNS
# IGROV1 ovarian = system: IGROV1 ovarian
# SK-MEL-5 melanoma = system: SK-MEL-5 melanoma
# A549 NSCLC = system: A549 NSCLC
# HCC-2998 colon = system: HCC-2998 colon
# M14 melanoma = system: M14 melanoma
# KM12 colon = system: KM12 colon
# MOLT-4 leukemia = system: MOLT-4 leukemia
# SW-620 colon = system: SW-620 colon
# CCRF-CEM leukemia = system: CCRF-CEM leukemia
# NCI-H522 lung = system: NCI-H522 lung
# MALME-3M melanoma = system: MALME-3M melanoma
# SR leukemia = system: SR leukemia
smiles,measurement,setting,value
CN(O)C(=O)CCC(NC(=O)CCC(N)C(=O)O)C(=O)NCC(=O)O (stereo not drawn),TGI,K-562 leukemia,> 100 µM
same,TGI,OVCAR-5 ovarian,> 100 µM
same,TGI,NCI/ADR-RES ovarian,> 100 µM
same,TGI,UO-31 renal,> 100 µM
same,TGI,UACC-62 melanoma,> 100 µM
same,TGI,HCT-15 colon,> 100 µM
same,TGI,DU-145 prostate,> 100 µM
same,TGI,NCI-H23 lung,> 100 µM
same,TGI,T-47D breast,> 100 µM
same,TGI,NCI-H460 lung,> 100 µM
same,TGI,SK-MEL-28 melanoma,> 100 µM
same,TGI,SK-OV-3 ovarian,> 100 µM
same,TGI,MDA-MB-435,> 100 µM
same,TGI,EKVX NSCLC,> 100 µM
same,TGI,U251 CNS,> 100 µM
same,TGI,MCF7 breast,> 100 µM
same,TGI,RXF 393 renal,> 100 µM
same,TGI,OVCAR-3 ovarian,> 100 µM
same,TGI,HS 578T breast,> 100 µM
same,TGI,ACHN renal,> 100 µM
same,TGI,RPMI-8226 leukemia,> 100 µM
same,TGI,SNB-19 CNS,> 100 µM
same,TGI,TK-10 renal,> 100 µM
same,TGI,A498 renal,> 100 µM
same,TGI,SN12C renal,> 100 µM
same,TGI,SK-MEL-2 melanoma,> 100 µM
same,TGI,OVCAR-8 ovarian,> 100 µM
same,TGI,BT-549 breast,> 100 µM
same,TGI,SF-268 CNS,> 100 µM
same,TGI,HOP-92 NSCLC,> 100 µM
same,TGI,MDA-N,> 100 µM
same,TGI,HCT-116 colon,> 100 µM
same,TGI,LOX IMVI melanoma,> 100 µM
same,TGI,HT29 colon,> 100 µM
same,TGI,MDA-MB-231 breast,> 100 µM
same,TGI,PC-3 prostate,> 100 µM
same,TGI,OVCAR-4 ovarian,> 100 µM
same,TGI,HOP-62 NSCLC,> 100 µM
same,TGI,HL-60(TB) leukemia,> 100 µM
same,TGI,786-0 renal,> 100 µM
same,TGI,NCI-H226 lung,> 100 µM
same,TGI,SF-539 CNS,> 100 µM
same,TGI,UACC-257 melanoma,> 100 µM
same,TGI,SNB-75 CNS,> 100 µM
same,TGI,CAKI-1 renal,> 100 µM
same,TGI,COLO 205 colon,> 100 µM
same,TGI,SF-295 CNS,> 100 µM
same,TGI,IGROV1 ovarian,> 100 µM
same,TGI,SK-MEL-5 melanoma,> 100 µM
same,TGI,A549 NSCLC,> 100 µM
same,TGI,HCC-2998 colon,> 100 µM
same,TGI,M14 melanoma,> 100 µM
same,TGI,KM12 colon,> 100 µM
same,TGI,MOLT-4 leukemia,> 100 µM
same,TGI,SW-620 colon,> 100 µM
same,TGI,CCRF-CEM leukemia,> 100 µM
same,TGI,NCI-H522 lung,> 100 µM
CCCc1nn(C)c2c(=O)[nH]c(-c3cc(S(=O)(=O)N4CCN(C)CC4)ccc3OCC)nc12,GI50,K-562 leukemia,> 100 µM
same,TGI,K-562 leukemia,> 100 µM
same,GI50,OVCAR-5 ovarian,> 100 µM
same,TGI,OVCAR-5 ovarian,> 100 µM
same,GI50,NCI/ADR-RES ovarian,> 100 µM
same,TGI,NCI/ADR-RES ovarian,> 100 µM
same,GI50,UO-31 renal,> 100 µM
same,TGI,UO-31 renal,> 100 µM
same,GI50,UACC-62 melanoma,> 100 µM
same,TGI,UACC-62 melanoma,> 100 µM
same,GI50,HCT-15 colon,> 100 µM
same,TGI,HCT-15 colon,> 100 µM
same,GI50,DU-145 prostate,> 100 µM
same,TGI,DU-145 prostate,> 100 µM
same,GI50,NCI-H23 lung,> 100 µM
same,TGI,NCI-H23 lung,> 100 µM
same,GI50,T-47D breast,> 100 µM
same,TGI,T-47D breast,> 100 µM
same,GI50,NCI-H460 lung,> 100 µM
same,TGI,NCI-H460 lung,> 100 µM
same,GI50,SK-MEL-28 melanoma,> 100 µM
same,TGI,SK-MEL-28 melanoma,> 100 µM
same,GI50,SK-OV-3 ovarian,> 100 µM
same,TGI,SK-OV-3 ovarian,> 100 µM
same,GI50,MDA-MB-435,> 100 µM
same,TGI,MDA-MB-435,> 100 µM
same,GI50,EKVX NSCLC,> 100 µM
same,TGI,EKVX NSCLC,> 100 µM
same,GI50,U251 CNS,> 100 µM
same,TGI,U251 CNS,> 100 µM
same,GI50,MCF7 breast,> 100 µM
same,TGI,MCF7 breast,> 100 µM
same,GI50,RXF 393 renal,> 100 µM
same,TGI,RXF 393 renal,> 100 µM
same,GI50,OVCAR-3 ovarian,> 100 µM
same,TGI,OVCAR-3 ovarian,> 100 µM
same,GI50,HS 578T breast,21.6 µM
same,TGI,HS 578T breast,> 100 µM
same,GI50,ACHN renal,> 100 µM
same,TGI,ACHN renal,> 100 µM
same,GI50,RPMI-8226 leukemia,> 100 µM
same,TGI,RPMI-8226 leukemia,> 100 µM
same,GI50,SNB-19 CNS,> 100 µM
same,TGI,SNB-19 CNS,> 100 µM
same,GI50,TK-10 renal,94.3 µM
same,TGI,TK-10 renal,> 100 µM
same,GI50,A498 renal,25.6 µM
same,TGI,A498 renal,> 100 µM
same,GI50,SN12C renal,> 100 µM
same,TGI,SN12C renal,> 100 µM
same,GI50,SK-MEL-2 melanoma,> 100 µM
same,TGI,SK-MEL-2 melanoma,> 100 µM
same,GI50,OVCAR-8 ovarian,> 100 µM
same,TGI,OVCAR-8 ovarian,> 100 µM
same,GI50,BT-549 breast,> 100 µM
same,TGI,BT-549 breast,> 100 µM
same,GI50,SF-268 CNS,> 100 µM
same,TGI,SF-268 CNS,> 100 µM
same,GI50,HOP-92 NSCLC,23.5 µM
same,TGI,HOP-92 NSCLC,97.5 µM
same,GI50,HCT-116 colon,> 100 µM
same,TGI,HCT-116 colon,> 100 µM
same,GI50,LOX IMVI melanoma,> 100 µM
same,TGI,LOX IMVI melanoma,> 100 µM
same,GI50,MALME-3M melanoma,> 100 µM
same,TGI,MALME-3M melanoma,> 100 µM
same,GI50,HT29 colon,> 100 µM
same,TGI,HT29 colon,> 100 µM
same,GI50,MDA-MB-231 breast,> 100 µM
same,TGI,MDA-MB-231 breast,> 100 µM
same,GI50,PC-3 prostate,> 100 µM
same,TGI,PC-3 prostate,> 100 µM
same,GI50,OVCAR-4 ovarian,> 100 µM
same,TGI,OVCAR-4 ovarian,> 100 µM
same,GI50,HOP-62 NSCLC,> 100 µM
same,TGI,HOP-62 NSCLC,> 100 µM
same,GI50,HL-60(TB) leukemia,> 100 µM
same,TGI,HL-60(TB) leukemia,> 100 µM
same,GI50,786-0 renal,> 100 µM
same,TGI,786-0 renal,> 100 µM
same,GI50,NCI-H226 lung,> 100 µM
same,TGI,NCI-H226 lung,> 100 µM
same,GI50,SF-539 CNS,> 100 µM
same,TGI,SF-539 CNS,> 100 µM
same,GI50,UACC-257 melanoma,> 100 µM
same,TGI,UACC-257 melanoma,> 100 µM
same,GI50,SNB-75 CNS,53.2 µM
same,TGI,SNB-75 CNS,> 100 µM
same,GI50,CAKI-1 renal,> 100 µM
same,TGI,CAKI-1 renal,> 100 µM
same,GI50,COLO 205 colon,> 100 µM
same,TGI,COLO 205 colon,> 100 µM
same,GI50,SF-295 CNS,> 100 µM
same,TGI,SF-295 CNS,> 100 µM
same,GI50,IGROV1 ovarian,91.4 µM
same,TGI,IGROV1 ovarian,> 100 µM
same,GI50,SK-MEL-5 melanoma,> 100 µM
same,TGI,SK-MEL-5 melanoma,> 100 µM
same,GI50,A549 NSCLC,> 100 µM
same,TGI,A549 NSCLC,> 100 µM
same,GI50,HCC-2998 colon,> 100 µM
same,TGI,HCC-2998 colon,> 100 µM
same,GI50,M14 melanoma,> 100 µM
same,TGI,M14 melanoma,> 100 µM
same,GI50,KM12 colon,> 100 µM
same,TGI,KM12 colon,> 100 µM
same,GI50,SR leukemia,> 100 µM
same,TGI,SR leukemia,> 100 µM
same,GI50,MOLT-4 leukemia,> 100 µM
same,TGI,MOLT-4 leukemia,> 100 µM
same,GI50,SW-620 colon,> 100 µM
same,TGI,SW-620 colon,> 100 µM
same,GI50,CCRF-CEM leukemia,> 100 µM
same,TGI,CCRF-CEM leukemia,> 100 µM
same,GI50,NCI-H522 lung,> 100 µM
same,TGI,NCI-H522 lung,> 100 µM
